{
  "source": "patent US20170042924A1",
  "about": "“MUSCLE ATROPHY INHIBITOR CONTAINING QUERCETIN GLYCOSIDE” (SUNTORY HOLDINGS LIMITED, priority 2014, published 2017)",
  "key": {"Foxo1": {"test_system": "Foxo1", "experiment": "Foxo1 expression in gastrocnemius tissue, forced oral administration test", "assay_type": "in vivo, mice", "details": "200 mg/kg QG or equivalent amount of quercetin, with DEX 10 mg/L in drinking water, compared to the DEX group, FIG. 4", "experimental": "(§1) Thereafter, for the purpose of a detailed analysis of the molecular mechanisms, the expression of genes involved in muscle atrophy in gastrocnemius tissue was analyzed. RNA was extracted from the cryopreserved gastrocnemius samples using ISOGEN (Nippon Gene Co., Ltd.) and the RNeazy Mini Kit (Qiagen). Then, cDNA synthesis was conducted using the High-Capacity cDNA Reverse Transcriptional Kits (Applied biosystems). Based on the constructed cDNAs, the messenger RNA (mRNA) levels of the muscle atrophy-related genes (Atrogin-1, MuRF-1, Foxo1, Redd1, and Mstn) and the control gene (18SrRNA) were determined by quantitative reverse transcription PCR using the TaqMan Fast Universal PCR Master Mix (Applied biosystems). The values obtained were expressed as mean±standard deviation. The differences in average gene expression levels between the DEX group and each of the DEX+QG groups were analyzed by Student's t-test, with p-values below 5% being considered significant. BALB/c male mice aged 7 weeks were habituated for one week, and then allowed to ingest 10 mg/L dexamethasone (DEX) in drinking water ad libitum. […] The differences in average gene expression levels between the DEX group and each of the DEX+QG group and the DEX+Q group were analyzed by Dunnett's test, with p-values below 5% being considered significant."}, "MuRF-1": {"test_system": "MuRF-1", "experiment": "MuRF-1 expression in gastrocnemius tissue, forced oral administration test", "assay_type": "in vivo, mice", "details": "200 mg/kg QG or equivalent amount of quercetin, with DEX 10 mg/L in drinking water, compared to the DEX group, FIG. 4", "experimental": "as §1"}, "BALB/c male mice": {"test_system": "BALB/c male mice", "experiment": "Dexamethasone-induced muscle atrophy, forced oral administration test, gastrocnemius weight/body weight ratio", "assay_type": "in vivo", "details": "200 mg/kg QG or equivalent amount of quercetin in terms of rutin, with DEX 10 mg/L in drinking water, compared to the DEX group, FIG. 3", "experimental": "BALB/c male mice aged 7 weeks were habituated for one week, and then allowed to ingest 10 mg/L dexamethasone (DEX) in drinking water ad libitum. Next, 200 mg/kg quercetin glycoside (QG) and an equivalent amount of quercetin (Q) in terms of rutin were each suspended in milliQ water containing 0.5% carboxymethyl cellulose sodium salt, and the suspensions were each forcibly administered orally […] to the mice for five days (from Monday to Friday). Then, administration of 10 mg/L DEX in drinking water was started from Friday. In the next week, forced oral QG/Q administration was resumed (from Monday to Thursday) concurrently with DEX administration in drinking water, and the mice were dissected on Friday. Sample collection after the administration test, muscle atrophy evaluation based on gastrocnemius weight (GW)/body weight (BW) ratio, and gene expression level analysis in gastrocnemius tissue were performed according to the procedures described in Examples 1 and 2. The differences in average gene expression levels between the DEX group and each of the DEX+QG group and the DEX+Q group were analyzed by Dunnett's test, with p-values below 5% being considered significant."}, "Redd1": {"test_system": "Redd1", "experiment": "Redd1 expression in gastrocnemius tissue, forced oral administration test", "assay_type": "in vivo, mice", "details": "200 mg/kg QG or equivalent amount of quercetin, with DEX 10 mg/L in drinking water, compared to the DEX group, FIG. 4", "experimental": "as §1"}},
  "data": [
    {"smiles": "O=c1c(O)c(-c2ccc(O)c(O)c2)oc2cc(O)cc(O)c12", "note": "[quercetin]", "values": [
      {"measurement": "expression of Foxo1 increased by DEX administration", "setting": "Foxo1", "value": "not effective in inhibiting the expression"},
      {"measurement": "expression of MuRF-1 increased by DEX administration", "setting": "MuRF-1", "value": "not effective in inhibiting the expression"},
      {"measurement": "GW/BW ratio (gastrocnemius weight divided by body weight)", "setting": "BALB/c male mice", "value": "not effective in improving the GW/BW ratio"},
      {"measurement": "expression of Redd1 increased by DEX administration", "setting": "Redd1", "value": "not effective in inhibiting the expression"}
    ]}
  ]
}
